Laboratory results as given in ChEMBL document CHEMBL1201862, “PubChem BioAssay data set” (2004).
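Compound exposure: 48 hours, 5 concentrations, 96-well plates. Here, GI50 denotes the concentration required for 50% inhibition of growth.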 Calls of active or inactive are those of the source. Rule as the data show it: active = GI50 up to about 1.1 µM and inactive = higher.

Columns and labels:
Assay in all cases: NCI tumour cell line growth inhibition, 48 h
[1] = tested on: A549
[2] = tested on: NCI-H226
[3] = tested on: HCC 2998
[4] = tested on: SF-539
[5] = tested on: NCI-H460
[6] = tested on: MDA-MB-435
[7] = tested on: K562
[8] = tested on: SNB-19
[9] = tested on: NCI-H522
[10] = tested on: CAKI-1
[11] = tested on: U-251
[12] = tested on: CCRF-CEM
[13] = tested on: SK-MEL-2
[14] = tested on: MCF7
[15] = tested on: UACC-62
[16] = tested on: HCT-116
[17] = tested on: Malme-3M
[18] = tested on: UACC-257
[19] = tested on: 786-0
[20] = tested on: SN12C
[21] = tested on: MOLT-4
[22] = tested on: Hs-578T
[23] = tested on: NCI-H23
[24] = tested on: OVCAR-8
[25] = tested on: MDA-N
[26] = tested on: OVCAR-5
[27] = tested on: HOP-62
[28] = tested on: SK-OV-3
[29] = tested on: MDA-MB-231
[30] = tested on: OVCAR-4
[31] = tested on: HOP-92
[32] = tested on: SW-620
[33] = tested on: RPMI-8226
[34] = tested on: HT-29
[35] = tested on: OVCAR-3
[36] = tested on: DU-145
[37] = tested on: COLO 205
[38] = tested on: SK-MEL-5
[39] = tested on: UO-31
[40] = tested on: RXF 393
[41] = tested on: ACHN
[42] = tested on: NCI/ADR-RES
[43] = tested on: HL-60
[44] = tested on: SF-268
[45] = tested on: TK-10
[46] = tested on: SR
[47] = tested on: M14
[48] = tested on: A498
[49] = tested on: LOX IMVI
[50] = tested on: SK-MEL-28
[51] = tested on: KM12
[52] = tested on: EKVX
[53] = tested on: HCT-15
[54] = tested on: T47D
[55] = tested on: SF-295
[56] = tested on: BT-549
[57] = tested on: IGROV-1
[58] = tested on: SNB-75
[59] = tested on: PC-3

O=C1/C(=C\c2cccc(Oc3ccccc3)c2)SC(c2ccccc2)N1c1ccccc1Cl (centres undefined)
GI50 [1]: 37.5 µM (inactive) | GI50 [2]: 26.2 µM (inactive) | GI50 [3]: 17.5 µM (inactive) | GI50 [4]: 19.1 µM (inactive) | GI50 [5]: 29.6 µM (inactive) | GI50 [6]: 23.3 µM (inactive) | GI50 [7]: 23 µM (inactive) | GI50 [8]: 24.4 µM (inactive) | GI50 [9]: 13.6 µM (inactive) | GI50 [10]: 34 µM (inactive) | GI50 [11]: 16.4 µM (inactive) | GI50 [12]: 6.87 µM (inactive) | GI50 [13]: 27.9 µM (inactive) | GI50 [14]: 28.1 µM (inactive) | GI50 [15]: 25.5 µM (inactive) | GI50 [16]: 14.9 µM (inactive) | GI50 [17]: 33.6 µM (inactive) | GI50 [18]: 24.5 µM (inactive) | GI50 [19]: 25.6 µM (inactive) | GI50 [20]: 26 µM (inactive) | GI50 [21]: 34.8 µM (inactive) | GI50 [22]: 16.5 µM (inactive) | GI50 [23]: 17.5 µM (inactive) | GI50 [24]: 21.9 µM (inactive) | GI50 [25]: 20 µM (inactive) | GI50 [26]: 76 µM (inactive) | GI50 [27]: 28.8 µM (inactive) | GI50 [28]: 25.4 µM (inactive) | GI50 [29]: 30.3 µM (inactive) | GI50 [30]: 37.1 µM (inactive) | GI50 [31]: 14.6 µM (inactive) | GI50 [32]: 33.3 µM (inactive) | GI50 [33]: 13 µM (inactive) | GI50 [34]: 19.7 µM (inactive) | GI50 [35]: 23.7 µM (inactive) | GI50 [36]: 32.9 µM (inactive) | GI50 [37]: 21.8 µM (inactive) | GI50 [38]: 15.1 µM (inactive) | GI50 [39]: 31 µM (inactive) | GI50 [40]: 20.8 µM (inactive) | GI50 [41]: 39.6 µM (inactive) | GI50 [42]: 27.9 µM (inactive) | GI50 [43]: 30.2 µM (inactive) | GI50 [44]: 33 µM (inactive) | GI50 [45]: 34.8 µM (inactive) | GI50 [46]: 19.3 µM (inactive) | GI50 [47]: 30.8 µM (inactive) | GI50 [48]: 46.1 µM (inactive) | GI50 [49]: 22.2 µM (inactive) | GI50 [50]: 41.2 µM (inactive) | GI50 [51]: 23 µM (inactive) | GI50 [52]: 28.8 µM (inactive) | GI50 [53]: 41.9 µM | GI50 [54]: 27.7 µM (inactive) | GI50 [55]: 33.8 µM (inactive) | GI50 [56]: 21.3 µM (inactive)

O=S(=O)(N/C(=N\O)Nc1ccc(Cl)cc1)c1cc(C(F)(F)F)cc(C(F)(F)F)c1
GI50 [1]: 18.1 µM (inactive) | GI50 [2]: 19.1 µM (inactive) | GI50 [4]: 22.3 µM (inactive) | GI50 [5]: 26.4 µM (inactive) | GI50 [6]: 20.3 µM (inactive) | GI50 [7]: 29.9 µM (inactive) | GI50 [8]: 17.1 µM (inactive) | GI50 [9]: 18.9 µM (inactive) | GI50 [10]: 16.9 µM (inactive) | GI50 [11]: 16.6 µM (inactive) | GI50 [12]: 40.7 µM (inactive) | GI50 [13]: 17.4 µM (inactive) | GI50 [15]: 16.7 µM (inactive) | GI50 [16]: 17.5 µM (inactive) | GI50 [17]: 18 µM (inactive) | GI50 [18]: 20.9 µM (inactive) | GI50 [19]: 19.3 µM (inactive) | GI50 [20]: 17.5 µM (inactive) | GI50 [21]: 19 µM (inactive) | GI50 [22]: 23 µM (inactive) | GI50 [23]: 19.9 µM (inactive) | GI50 [24]: 18.7 µM (inactive) | GI50 [25]: 21 µM (inactive) | GI50 [26]: 16.3 µM (inactive) | GI50 [57]: 16.9 µM (inactive) | GI50 [27]: 18.7 µM (inactive) | GI50 [28]: 18.6 µM (inactive) | GI50 [29]: 18.4 µM (inactive) | GI50 [30]: 15 µM (inactive) | GI50 [31]: 16.2 µM (inactive) | GI50 [32]: 34.3 µM (inactive) | GI50 [34]: 19 µM (inactive) | GI50 [35]: 16 µM (inactive) | GI50 [58]: 16 µM (inactive) | GI50 [36]: 21.3 µM (inactive) | GI50 [37]: 18.6 µM (inactive) | GI50 [38]: 18 µM (inactive) | GI50 [40]: 19 µM (inactive) | GI50 [41]: 17.3 µM (inactive) | GI50 [42]: 24.9 µM (inactive) | GI50 [43]: 24.3 µM (inactive) | GI50 [44]: 21.6 µM (inactive) | GI50 [45]: 19.2 µM (inactive) | GI50 [47]: 17.4 µM (inactive) | GI50 [49]: 18.5 µM (inactive) | GI50 [50]: 19.2 µM (inactive) | GI50 [51]: 19.7 µM (inactive) | GI50 [52]: 16.6 µM (inactive) | GI50 [53]: 19.9 µM | GI50 [54]: 22.4 µM (inactive) | GI50 [59]: 17.5 µM (inactive) | GI50 [55]: 18.3 µM (inactive) | GI50 [56]: 18.7 µM (inactive)
